# In ChEMBL document CHEMBL1800055, “Orally active MMP-1 sparing α-tetrahydropyranyl and α-piperidinyl sulfone matrix metalloproteinase (MMP) inhibitors with efficacy in cancer, arthritis, and cardiovascular disease” (J Med Chem, 2010):
# Legend:
# Stromelysin-1 = Stromelysin-1 (Homo sapiens, UniProt P08254)
# Neutrophil collagenase = Neutrophil collagenase (Homo sapiens, UniProt P22894)
# [1] = target: Matrix metalloproteinase-14 (Homo sapiens, UniProt P50281)
# Collagenase 3 = Collagenase 3 (Homo sapiens, UniProt P45452)
# [2] = target: 72 kDa type IV collagenase (Homo sapiens, UniProt P08253)
# 72 kDa type IV collagenase, sequence (P08253 whole entry): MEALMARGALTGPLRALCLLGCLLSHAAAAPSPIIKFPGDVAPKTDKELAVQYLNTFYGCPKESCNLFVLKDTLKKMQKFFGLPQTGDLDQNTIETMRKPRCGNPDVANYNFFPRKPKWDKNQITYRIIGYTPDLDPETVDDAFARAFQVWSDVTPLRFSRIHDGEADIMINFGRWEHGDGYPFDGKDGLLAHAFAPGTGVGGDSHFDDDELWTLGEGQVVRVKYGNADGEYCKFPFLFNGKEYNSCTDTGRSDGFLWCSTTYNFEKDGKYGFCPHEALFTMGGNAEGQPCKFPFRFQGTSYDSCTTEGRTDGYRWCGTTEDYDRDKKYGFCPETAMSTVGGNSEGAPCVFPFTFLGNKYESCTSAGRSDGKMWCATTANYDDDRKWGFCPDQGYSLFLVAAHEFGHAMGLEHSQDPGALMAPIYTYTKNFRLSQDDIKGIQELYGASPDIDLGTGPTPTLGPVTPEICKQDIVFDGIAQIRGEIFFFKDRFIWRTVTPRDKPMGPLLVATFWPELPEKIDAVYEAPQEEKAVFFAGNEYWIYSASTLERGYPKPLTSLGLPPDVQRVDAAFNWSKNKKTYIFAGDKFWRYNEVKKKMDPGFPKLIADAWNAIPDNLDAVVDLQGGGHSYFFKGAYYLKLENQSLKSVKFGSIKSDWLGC
# Interstitial collagenase = target: T1, Interstitial collagenase (Homo sapiens, UniProt P03956); type: cell-based, HT-1080
# T1 sequence (P03956 whole entry): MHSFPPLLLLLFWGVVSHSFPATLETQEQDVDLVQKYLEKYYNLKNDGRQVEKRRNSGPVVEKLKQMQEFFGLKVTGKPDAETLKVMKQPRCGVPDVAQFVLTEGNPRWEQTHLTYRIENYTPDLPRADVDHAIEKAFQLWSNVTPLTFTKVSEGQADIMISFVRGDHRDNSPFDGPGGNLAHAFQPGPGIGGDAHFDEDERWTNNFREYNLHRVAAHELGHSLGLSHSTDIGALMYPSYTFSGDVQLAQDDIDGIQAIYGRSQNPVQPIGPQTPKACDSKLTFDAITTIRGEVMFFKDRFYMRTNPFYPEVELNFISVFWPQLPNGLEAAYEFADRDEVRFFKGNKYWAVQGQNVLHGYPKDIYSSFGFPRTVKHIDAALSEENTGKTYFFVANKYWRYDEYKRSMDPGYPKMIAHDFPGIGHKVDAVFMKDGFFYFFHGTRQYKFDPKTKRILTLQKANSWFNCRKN
# [3] = target: Matrix metalloproteinase-9 (Homo sapiens, UniProt P14780)
# Matrix metalloproteinase-9, sequence (P14780 whole entry): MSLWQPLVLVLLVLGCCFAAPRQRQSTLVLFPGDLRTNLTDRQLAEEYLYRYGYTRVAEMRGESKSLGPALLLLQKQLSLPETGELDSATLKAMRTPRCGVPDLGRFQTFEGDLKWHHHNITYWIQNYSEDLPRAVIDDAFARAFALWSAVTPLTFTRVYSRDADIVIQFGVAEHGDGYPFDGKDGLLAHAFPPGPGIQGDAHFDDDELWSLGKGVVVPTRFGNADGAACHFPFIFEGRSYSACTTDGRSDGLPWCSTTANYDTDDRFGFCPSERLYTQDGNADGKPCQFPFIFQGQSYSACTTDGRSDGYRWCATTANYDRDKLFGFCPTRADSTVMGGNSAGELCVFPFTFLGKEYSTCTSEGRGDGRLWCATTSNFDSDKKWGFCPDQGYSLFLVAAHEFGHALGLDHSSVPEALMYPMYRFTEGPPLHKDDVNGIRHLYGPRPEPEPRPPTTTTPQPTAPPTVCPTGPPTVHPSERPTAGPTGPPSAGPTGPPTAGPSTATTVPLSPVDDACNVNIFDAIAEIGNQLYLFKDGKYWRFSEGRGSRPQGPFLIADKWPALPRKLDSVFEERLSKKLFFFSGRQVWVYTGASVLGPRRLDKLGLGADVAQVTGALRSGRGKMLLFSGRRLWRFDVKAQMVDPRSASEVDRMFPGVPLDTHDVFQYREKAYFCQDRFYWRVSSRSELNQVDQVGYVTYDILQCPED
# [4] = Cmax in rat at 20 mg/kg, po; type: ADME, organism-based; design: dose 20 mg/kg, route oral; details: in vivo
# Rattus norvegicus [5] = experiment: Plasma concentration in rat at 20 mg/kg, po; type: ADME, organism-based; design: dose 20 mg/kg, route oral; details: in vivo; note: time not given here
# [6] = Half life in rat at 20 mg/kg, po; type: ADME, organism-based; design: dose 20 mg/kg, route oral; details: in vivo
# [7] = Oral bioavailability in rat at 20 mg/kg; type: ADME, organism-based; details: in vivo
# [8] = Half life in rat at 10 mg/mL, iv and po; type: ADME, organism-based; details: in vivo
# [9] = Oral bioavailability in rat at 10 mg/mL; type: ADME, organism-based; details: in vivo
# [10] = Cmax in rat at 10 mg/mL, iv and po; type: ADME, organism-based; details: in vivo
# Rattus norvegicus [11] = experiment: Plasma concentration in rat at 10 mg/mL, iv and po; type: ADME, organism-based; details: in vivo; note: time not given here
# Neutrophil collagenase, sequence (P22894 whole entry): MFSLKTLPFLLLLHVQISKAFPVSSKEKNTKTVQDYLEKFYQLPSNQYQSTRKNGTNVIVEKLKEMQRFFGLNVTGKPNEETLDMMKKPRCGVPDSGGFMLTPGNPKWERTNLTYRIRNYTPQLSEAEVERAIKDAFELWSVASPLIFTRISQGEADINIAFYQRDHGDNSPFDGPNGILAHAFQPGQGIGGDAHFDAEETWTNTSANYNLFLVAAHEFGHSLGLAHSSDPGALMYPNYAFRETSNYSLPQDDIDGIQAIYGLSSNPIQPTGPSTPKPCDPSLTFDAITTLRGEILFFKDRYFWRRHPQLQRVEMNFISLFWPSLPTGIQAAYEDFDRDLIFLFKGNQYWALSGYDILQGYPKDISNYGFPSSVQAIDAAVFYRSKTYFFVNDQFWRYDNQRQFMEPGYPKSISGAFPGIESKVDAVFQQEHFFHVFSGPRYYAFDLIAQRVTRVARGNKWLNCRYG
# Stromelysin-1, sequence (P08254 whole entry): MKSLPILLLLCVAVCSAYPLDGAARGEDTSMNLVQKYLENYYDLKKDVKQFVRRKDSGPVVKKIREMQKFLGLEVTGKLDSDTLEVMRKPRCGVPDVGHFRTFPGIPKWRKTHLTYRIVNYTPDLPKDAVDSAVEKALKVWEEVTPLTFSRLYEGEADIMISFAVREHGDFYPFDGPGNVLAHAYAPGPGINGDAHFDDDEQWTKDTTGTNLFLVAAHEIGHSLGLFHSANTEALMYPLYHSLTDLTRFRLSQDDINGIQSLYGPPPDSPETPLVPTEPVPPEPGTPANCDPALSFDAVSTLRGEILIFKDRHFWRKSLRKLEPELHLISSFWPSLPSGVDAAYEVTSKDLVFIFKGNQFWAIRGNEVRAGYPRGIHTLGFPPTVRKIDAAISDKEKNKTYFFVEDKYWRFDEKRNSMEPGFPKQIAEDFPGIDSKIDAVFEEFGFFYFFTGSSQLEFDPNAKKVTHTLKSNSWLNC
SMILES,IC50 (Stromelysin-1) [nM],IC50 (Neutrophil collagenase) [nM],IC50 [1] [nM],IC50 (Collagenase 3) [nM],IC50 [2] [nM],IC50 (Interstitial collagenase) [nM],IC50 [3] [nM],Cmax [4] [ng/mL],Cp (Rattus norvegicus [5]) [ng/mL],half-life [6] [h],bioavailability [7] [%],half-life [8] [h],bioavailability [9] [%],Cmax [10] [ng/mL],Cp (Rattus norvegicus [11]) [ng/mL]
COCCN1CCC(C(=O)NO)(S(=O)(=O)c2ccc(Oc3ccc4c(c3)OCO4)cc2)CC1,20,1.2,4,0.2,0.25,2400,–,–,–,–,–,–,–,–,–
CCOc1ccc(Oc2ccc(S(=O)(=O)C3(C(=O)NO)CCN(C4CC4)CC3)cc2)cc1,–,–,–,0.25,0.1,1000,0.2,–,–,–,–,–,–,–,–
O=C(NO)C1(S(=O)(=O)c2ccc(Oc3ccc4c(c3)OCO4)cc2)CCN(C2CC2)CC1,–,–,–,0.3,0.5,1000,< 0.1,13100,206,–,–,–,–,–,–
O=C(NO)C1(S(=O)(=O)c2ccc(Oc3ccc4c(c3)OCO4)cc2)CCNCC1,35,2.4,–,–,–,–,–,1550,128,–,–,–,–,–,–
O=C(NO)C1(S(=O)(=O)c2ccc(Oc3ccc(O)cc3)cc2)CCOCC1,–,–,1.71,0.3,0.2,400,< 0.1,–,–,–,–,–,–,–,–
O=C(NO)C1(S(=O)(=O)c2ccc(Oc3ccc4c(c3)OCCO4)cc2)CCN(C2CC2)CC1,21.5,1.5,–,0.5,0.2,6000,–,9460,15,3.3,16.6,–,–,–,–
O=C(NO)C1(S(=O)(=O)c2ccc(Oc3ccncc3)cc2)CCOCC1,–,–,–,–,0.5,–,–,–,–,–,–,0.25,42.3,1610,3
COc1ccc(Oc2ccc(S(=O)(=O)C3(C(=O)NO)CCN(Cc4ccccn4)CC3)cc2)cc1,20.6,1.9,–,0.3,0.2,4500,–,–,160,–,–,–,–,–,–
CC(C)Oc1ccc(Oc2ccc(S(=O)(=O)C3(C(=O)NO)CCOCC3)cc2)cc1,–,–,10.5,0.1,< 0.1,300,< 0.1,–,–,–,–,–,–,–,–
O=C(NO)C1(S(=O)(=O)c2ccc(Oc3ccc(Cl)cc3)cc2)CCOCC1,18.1,1.2,–,–,–,–,–,–,–,–,–,1.5,45.8,3120,506
CC(C)N1CCC(C(=O)NO)(S(=O)(=O)c2ccc(Oc3ccc(OC(F)(F)F)cc3)cc2)CC1,–,0.4,–,< 0.1,< 0.1,> 10000,< 0.1,–,–,–,–,–,–,–,–
O=C(NO)C1(S(=O)(=O)c2ccc(Oc3ccc(-c4ccccc4)cc3)cc2)CCOCC1,50,2.4,–,0.25,0.1,1400,–,–,–,–,–,–,–,–,–
O=C(NO)C1(S(=O)(=O)c2ccc(Oc3ccc(C(F)(F)F)cc3)cc2)CCN(CCN2CCOCC2)CC1,–,–,–,0.35,0.3,–,–,147,73,0.94,2.6,–,–,–,–
O=C(NO)C1(S(=O)(=O)c2ccc(Oc3ccc(OC(F)(F)F)cc3)cc2)CCOCC1,35,0.9,10.6,–,–,–,–,–,–,–,–,1.87,35.9,8580,1172
O=C(NO)C1(S(=O)(=O)c2ccc(Oc3ccccc3)cc2)CCOCC1,7,0.4,–,0.1,0.1,–,–,–,–,–,–,1.74,5.8,872,50
CC(=O)N1CCC(C(=O)NO)(S(=O)(=O)c2ccc(Oc3ccc(OC(F)(F)F)cc3)cc2)CC1,18.1,1.6,9,–,–,–,–,159,72,1.06,4,–,–,–,–
C#CCN1CCC(C(=O)NO)(S(=O)(=O)c2ccc(Oc3ccc(OC(F)(F)F)cc3)cc2)CC1,–,–,–,0.2,< 0.1,2600,< 0.1,–,–,–,–,–,–,–,–
CSc1ccc(Oc2ccc(S(=O)(=O)C3(C(=O)NO)CCOCC3)cc2)cc1,–,–,–,< 0.1,< 0.1,2500,< 0.1,–,–,–,–,–,–,–,–

SMILES,IC50 (Stromelysin-1) [nM],IC50 (Neutrophil collagenase) [nM],IC50 [1] [nM],IC50 (Collagenase 3) [nM],IC50 [2] [nM],IC50 (Interstitial collagenase) [nM],IC50 [3] [nM],Cmax [4] [ng/mL],Cp (Rattus norvegicus [5]) [ng/mL],half-life [6] [h],bioavailability [7] [%],half-life [8] [h],bioavailability [9] [%],Cmax [10] [ng/mL],Cp (Rattus norvegicus [11]) [ng/mL]
CC(C)N1CCC(C(=O)NO)(S(=O)(=O)c2ccc(Oc3ccc(C(F)(F)F)cc3)cc2)CC1,40,1.4,–,5.5,0.3,> 10000,–,5120,429,2.08,48.3,–,–,–,–
CCOCCN1CCC(C(=O)NO)(S(=O)(=O)c2ccc(Oc3ccc(OC(F)(F)F)cc3)cc2)CC1,–,–,–,–,–,5900,–,3130,3040,1.66,14.7,–,–,–,–
CN1CCC(C(=O)NO)(S(=O)(=O)c2ccc(Oc3ccc(OC(F)(F)F)cc3)cc2)CC1,–,–,–,0.6,< 0.1,> 10000,0.18,–,–,–,–,–,–,–,–
O=C(NO)C1(S(=O)(=O)c2ccc(Oc3ccc(Cl)c(Cl)c3)cc2)CCOCC1,35,4,–,–,–,–,–,–,–,–,–,–,–,–,–
C#CCN1CCC(C(=O)NO)(S(=O)(=O)c2ccc(Oc3ccc(C(C)C)cc3)cc2)CC1,32.6,1.6,–,0.25,0.1,> 10000,–,5310,21,0.73,23.8,–,–,–,–
C#CCN1CCC(C(=O)NO)(S(=O)(=O)c2ccc(Oc3ccc4c(c3)OCO4)cc2)CC1,18.1,1.3,–,0.6,–,2000,–,–,134,0.843,30.1,–,–,–,–
COCCN1CCC(C(=O)NO)(S(=O)(=O)c2ccc(Oc3ccc(C(C)C)cc3)cc2)CC1,–,–,–,0.2,0.1,10000,–,–,–,–,–,–,–,–,–
CC(C)Oc1ccc(Oc2ccc(S(=O)(=O)C3(C(=O)NO)CCN(C4CC4)CC3)cc2)cc1,–,–,–,0.1,0.1,770,–,–,–,–,–,–,–,–,–
CCN1CCC(C(=O)NO)(S(=O)(=O)c2ccc(Oc3ccc(C(F)(F)F)cc3)cc2)CC1,36.9,1.4,–,0.6,0.2,> 10000,–,–,–,–,–,–,–,–,–
O=C(NO)C1(S(=O)(=O)c2ccc(Oc3ccc(OC(F)(F)F)cc3)cc2)CCNCC1,–,0.7,–,0.1,< 0.1,10000,–,630,223,1.78,6.7,–,–,–,–
O=C(NO)C1(S(=O)(=O)c2ccc(Oc3ccc(C(F)(F)F)cc3)cc2)CCNCC1,64.7,2,160,1.2,1.7,> 10000,–,540,150,1.88,12.4,–,–,–,–
C#CCN1CCC(C(=O)NO)(S(=O)(=O)c2ccc(Oc3ccc(OC)cc3)cc2)CC1,0.2,10,–,–,–,–,–,–,192,1.01,36.9,–,–,–,–
COCCN1CCC(C(=O)NO)(S(=O)(=O)c2ccc(Oc3ccc(OC(C)C)cc3)cc2)CC1,–,–,–,0.5,0.3,2000,–,–,–,–,–,–,–,–,–
O=C(NO)C1(S(=O)(=O)c2ccc(Oc3ccc(SC(F)(F)F)cc3)cc2)CCOCC1,–,0.4,–,–,0.4,5000,–,–,–,–,–,1.71,49,7270,3113
CC(C)c1ccc(Oc2ccc(S(=O)(=O)C3(C(=O)NO)CCN(C(C)C)CC3)cc2)cc1,22.5,1.8,–,2.7,1,> 10000,–,–,–,–,–,–,–,–,–
O=C(NO)C1(S(=O)(=O)c2ccc(Oc3cccc(C(F)(F)F)c3)cc2)CCOCC1,55.3,30,–,0.8,0.8,> 10000,–,–,–,–,–,1.12,18.3,1140,257
O=C(NO)C1(S(=O)(=O)c2ccc(Oc3ccc(OC(F)(F)F)cc3)cc2)CCN(CCO)CC1,–,–,–,< 0.1,< 0.1,4500,–,1380,570,1.39,21.9,–,–,–,–
O=C(NO)C1(S(=O)(=O)c2ccc(Oc3cccc(Cl)c3)cc2)CCOCC1,18.1,1.8,4.5,–,–,–,–,–,–,–,–,–,–,–,–
